Laboratory results: patent US11413278B2, “Compounds and methods for promoting stress resistance” (priority 2015, dated 2022)
Entries after “also recorded” stand apart in the source; their conditions may differ. Where two headings read alike, the source gives them in different places.

Experiments:
[1] = tested on: NRF2; assay: qPCR analysis of NRF2-regulated genes; assay type: cell-based, human; details: for fold induction at 10 µM: Homo sapiens
Method in brief: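 Expression of HMOX1, NQO1, GCLC and GSTM1 measured by qPCR relative to B2M, PPIA and GAPDH. Cells were WI-38 fibroblasts exposed 24 hrs to 10 μM compound, with RNA and cDNA prepared via Cells-to-Ct. Where stated, cells were first transfected 36 hrs with FOXO3 or NRF2 siRNA at 10 nM.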

[2] = tested on: NRF2; assay: in vitro; assay type: cell-based, human; details: for NRF2-dependency for H2O2-resistance, at 10 uM - with H2O2, 1st experiment: experiment 1 (1st); for Assay 17: NRF2-dependency for H2O2-resistance: YES/NO; for NRF2-dependency of H2O2-resistance (NRF2 siRNA knockdown): at least 2 of 3 independent experiments
[3] = tested on: mTOR; assay: mTOR inhibition (RPS6 phosphorylation status), In-Cell Western; assay type: cell-based, human; details: for mTOR down-regulation by p-RPS6 assays: Assay 14(q), at 5 uM, 10 uM & 20 uM; for Exp. 1, normalized reduction in p-RPS6/RPS6 ratio / Exp. 3, normalized reduction in p-RPS6/RPS6 ratio: n=4
Method in brief: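 Read-out is In-Cell Western near-infrared imaging of phospho-RPS6 (Ser-235/236) against total RPS6, using overnight 4° C primary staining and DyLight 680/800 secondaries. Compounds were given to WI-38 cells for 24 hrs at three doses: 5, 10 and 20 μM.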

[4] = tested on: PC12 cells expressing poly(Q)103-Htt-EGFP; assay: Poly(Q) toxicity & viability analysis (cellular model of Huntington's disease); assay type: cell-based, rat; details: for M = Huntington's poly-Q toxicity attenuation: score; for K = Huntington's poly-Q toxicity attenuation: summary score
Method in brief: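 Readout is CellTiter-Glo ATP content measured after 48 hrs. Cells are a PC12 line stably expressing inducible poly(Q)103-Htt-EGFP, where induction produces toxic aggregates.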

[5] = tested on: WI-38 cells; details: for No H2O2 stress treatment, at 10 uM (fold change): normalized ATP measurement; for Assay 1: H2O2-resistant: YES/NO, if NO, possibly due to repeated freezing/thawing of stocks
[6] = 24 h, Assay 12(o), at 10 uM, qPCR, read-out: Induction of NRF2-regulated genes: HMOX1 normalized fold-change
[7] = rounded fold change, WI-38 cells, 10 μM, 24 hrs (RP11 for Gr-1D, RP29 for Gr-4D), read-out: Summary of effects on NRF2-regulated genes: HMOX1
[8] = 10 μM, 24 hrs, WI-38 cells, qPCR, normalized to B2M, n = 4, read-out: HMOX1 expression, normalized fold change (NRF2-regulated gene)
[9] = WI-38 cells, 10 μM, 24 hrs, n=4, qPCR normalized by B2M, read-out: GCLC Normalized fold change
[10] = WI-38 cells, 10 μM, 24 hrs, n=4, qPCR normalized by B2M, read-out: GSTM1 Normalized fold change
[11] = WI-38 cells, 10 μM, 24 hrs, n=4, qPCR normalized by B2M, read-out: HMOX1 Normalized fold change
[12] = WI-38 cells, 10 μM, 24 hrs, n=4, qPCR normalized by B2M, read-out: NQO1 Normalized fold change
[13] = 10 uM, with H2O2, NRF2 knockdown in WI-38 cells, YES = resistance reduced by at least 50%, partial = 25% to 50%
[14] = Exp. 3, at 5 μM, In-Cell Western
[15] = WI-38 cells, 10 μM, (*) = compromised ability to protect cells from H2O2, could be due to stability issue
[16] = asterisks indicate the loss of the ability to protect cells from H2O2 over time
[17] = read-out: Est. ED50, dose response 0.6-20 μM, H2O2-resistance

## O=C(NCc1cccnc1)/C(=C\c1ccc(Br)cc1)S(=O)(=O)c1ccccc1 [Gr-7B]
[1]; 2-point score
  F = Potential NRF2 Activation: 0
[1]; [6]
  fold induction at 10 µM: 17.9
[1]; [7]
  fold induction at 10 µM: 54.1
[1]; [8]
  fold induction at 10 µM: 54.1
[1]; [9]
  fold induction at 10 µM: 1.8
[1]; [10]
  fold induction at 10 µM: 0.981
[1]; [11]
  fold induction at 10 µM: 54.2
[1]; [12]
  fold induction at 10 µM: 1.41
[1]; summary score
  F = Potential NRF2 Activation: 0
[2]; 10 uM, with H2O2
  NRF2-dependency for H2O2-resistance, at 10 uM - with H2O2, 1st experiment: 1st, partial;
[2]; 10 uM, experiment 2 (2nd), with H2O2
  NRF2-dependency for H2O2-resistance, at 10 uM - with H2O2, 2nd experiment: 2nd, partial.
[2]; [13]
  NRF2-dependency for H2O2-resistance, 1st experiment: partial;
  NRF2-dependency for H2O2-resistance, 2nd experiment: partial.
[2]; 10 uM
  Assay 17: NRF2-dependency for H2O2-resistance: YES
[2]
  NRF2-dependency of H2O2-resistance (NRF2 siRNA knockdown): significantly attenuate
[2]; score
  J = NRF2-dependency for H2O2-resistance: 1
[2]; summary score
  J = NRF2-dependency for H2O2-resistance: 1
[3]; 2-point score
  G = mTOR down-regulation: 2
[3]
  mTOR down-regulation by p-RPS6 assays: YES
[3]; Exp. 1, In-Cell Western
  Exp. 1, normalized reduction in p-RPS6/RPS6 ratio: ~67% (−), at 20 μM
[3]; Exp. 1, at 10 μM, In-Cell Western
  Exp. 1, normalized reduction in p-RPS6/RPS6 ratio: ~65% (−), at 10 μM;
[3]; Exp. 3, In-Cell Western
  Exp. 3, normalized reduction in p-RPS6/RPS6 ratio: ~53% (−), at 20 μM
[3]; [14]
  Exp. 3, normalized reduction in p-RPS6/RPS6 ratio: ~48% (−), at 5 μM;
[3]; Exp. 3, at 10 μM, In-Cell Western
  Exp. 3, normalized reduction in p-RPS6/RPS6 ratio: ~45% (−), at 10 μM;
[3]; In-Cell Western
  mTOR inhibition (p-RPS6/RPS6), qualitative: mTOR-inhibiting activities; also recorded: consistently reduced the ratios
[3]; summary score
  G = mTOR down-regulation: 2
[4]
  M = Huntington's poly-Q toxicity attenuation: 0
  K = Huntington's poly-Q toxicity attenuation: 0
[5]; [15]
  H2O2-resistant: YES (*)
[5]; WI-38 cells
  No H2O2 stress treatment, at 10 uM (fold change): 0.56 fold change
[5]
  Assay 1: H2O2-resistant: YES
[5]; [16]
  H2O2-resistant: YES (*)
[5]; [17]
  EC50: 24.7 µM

## O=C(NCc1cccnc1)/C(=C/c1ccc(-c2ccc(Cl)cc2)o1)S(=O)(=O)c1ccccc1 [Gr-7C]
[1]; 2-point score
  F = Potential NRF2 Activation: 2
[1]; Assay 13(p)
  Potential NRF2 Activation (>=2 target genes induced, by >=1.5-fold): YES
[1]; 24 h, Assay 12(o), at 10 uM, qPCR, read-out: Induction of NRF2-regulated genes: GCLC normalized fold-change
  fold induction at 10 µM: 2.27
[1]; 24 h, Assay 12(o), at 10 uM, qPCR, read-out: Induction of NRF2-regulated genes: GSTM1 normalized fold-change
  fold induction at 10 µM: 0.78
[1]; [6]
  fold induction at 10 µM: 28.1
[1]; [7]
  fold induction at 10 µM: 28.1
[1]; rounded fold change, WI-38 cells, 10 μM, 24 hrs (RP29 for Gr-4D), read-out: Summary of effects on NRF2-regulated genes: GSTM1
  fold induction at 10 µM: 0.78
[1]; rounded fold change, WI-38 cells, 10 μM, 24 hrs, read-out: Summary of effects on NRF2-regulated genes: GCLC
  fold induction at 10 µM: 2.27
[1]; 10 μM, 24 hrs, WI-38, read-out: Expression of at least two NRF2 target genes
  fold induction at 10 µM: > 1.5
[1]; 10 μM, 24 hrs, WI-38 cells, qPCR, normalized to B2M, n = 4, read-out: GCLC expression, normalized fold change (NRF2-regulated gene)
  fold induction at 10 µM: 2.27
[1]; 10 μM, 24 hrs, WI-38 cells, qPCR, normalized to B2M, n = 4, read-out: GSTM1 expression, normalized fold change (NRF2-regulated gene)
  fold induction at 10 µM: 0.78
[1]; [8]
  fold induction at 10 µM: 28.1
[1]; [9]
  fold induction at 10 µM: 2.27
[1]; [10]
  fold induction at 10 µM: 0.784
[1]; [11]
  fold induction at 10 µM: 28
[1]; [12]
  fold induction at 10 µM: 0.811
[1]; summary score
  F = Potential NRF2 Activation: 2
[2]
  Survival of NRF2 siRNA-transfected cells in the absence of H2O2: could reduce the survival
  NRF2-dependency of H2O2-resistance (NRF2 siRNA knockdown): significantly attenuate
[2]; 10 uM, with H2O2
  NRF2-dependency for H2O2-resistance, at 10 uM - with H2O2, 1st experiment: 1st, YES;
[2]; [13]
  NRF2-dependency for H2O2-resistance, 1st experiment: YES;
[2]; 10 uM
  Assay 17: NRF2-dependency for H2O2-resistance: YES
[2]; human, 24 h, 10 uM
  viability of non-stressed cells, reduced by: by 60%)
[2]; score
  J = NRF2-dependency for H2O2-resistance: 1
[2]; summary score
  J = NRF2-dependency for H2O2-resistance: 1
[3]; 2-point score
  G = mTOR down-regulation: 2
[3]
  mTOR down-regulation by p-RPS6 assays: YES
[3]; Exp. 1, In-Cell Western
  Exp. 1, normalized reduction in p-RPS6/RPS6 ratio: ~80% (−), at 20 μM
[3]; Exp. 3, In-Cell Western
  Exp. 3, normalized reduction in p-RPS6/RPS6 ratio: ~40% (−), at 20 μM
[3]; [14]
  Exp. 3, normalized reduction in p-RPS6/RPS6 ratio: ~38% (−), at 5 μM;
[3]; In-Cell Western
  mTOR inhibition (p-RPS6/RPS6), qualitative: consistently reduced the ratios
[3]; summary score
  G = mTOR down-regulation: 2
[4]; 2.5 μM, 5 μM, 10 μM and 20 μM
  Viability of PC12 cells upon induction of toxic poly(Q)103-Htt-EGFP aggregates: consistently increased the viability
[4]; 10 uM, YES/NO
  Assay 20: Huntington's poly-Q toxicity attenuation: YES
[4]
  M = Huntington's poly-Q toxicity attenuation: 1
  K = Huntington's poly-Q toxicity attenuation: 1
[5]; [15]
  H2O2-resistant: YES
[5]; WI-38 cells
  No H2O2 stress treatment, at 10 uM (fold change): 0.87 fold change
[5]
  Assay 1: H2O2-resistant: YES
[5]; [16]
  H2O2-resistant: YES
[5]; derived from dose response curves, 0.6-20 uM, H2O2-resistance of WI-38 cells
  EC50: 14.2 µM
[5]; [17]
  EC50: 2.59 µM
